One compound from publication PMC10845951, “Characterization of a selective, iron-chelating antifungal compound that disrupts fungal metabolism and synergizes with fluconazole” (Microbiology Spectrum, 2024) can be followed below.

The nature of data set [1]: Nano liquid chromatography-mass spectrometry metal binding. How it is done:
Liquid chromatography-mass spectrometry (LC-MS)-grade water, acetonitrile, and formic acid (≥99%) were purchased from VWR (Radnor, PA, USA). […] Metal solutions containing 2 µM, 4 µM, 6 µM, and 10 µM CaCl2, CuCl2, FeCl2, FeCl3, MgCl2, MnCl2, and ZnCl2 in 0.1% formic acid in LC-MS-grade water (hereby referred to as 0.1% formic acid) were made. A stock solution of terpyridine (100 µM) in 0.1% formic acid was made and added to the metal solutions to a final concentration of 10 µM terpyridine. All metal solutions in addition to a blank sample containing 10 µM terpyridine in 0.1% formic acid were subjected to nano liquid chromatography (nanoLC-MS) analysis. nanoLC-MS was performed using an nLC EASY 1000 pump connected to a Q-Exactive mass spectrometer (MS) with a Nanospray Flex ion source (all from Thermo Fisher Scientific, Waltham, MA, USA). For separation, a 50 µm (inner diameter) × 5 cm in-house packed nanoLC column containing 2.6-µm Accucore C18 particles (80 Å) was used. The column was packed according to the protocol from Berg et al. ([58]). Trapping of analytes prior to separation was performed online using a 2-cm Acclaim PepMap with 3-µm particles (100 Å). All columns and packing materials were obtained from Thermo Fisher Scientific. The mobile phases consisted of 0.1% formic acid (A) and 90/10/0.1 acetonitrile/water/formic acid (vol/vol/vol) (B).

The test system of data set [2] is C. glabrata WT (10028) cells. The data set can be described thus: XTT metabolic assay. The data set is classed as cell-based, Candida glabrata. Conditions: 0.625, 2.5, 10 µM; 6 and 24 h.
Data set [3] concerns C. glabrata WT (JEY10028) cells. Description: Mitochondrial staining with MitoTracker. The class given is cell-based, Candida glabrata. As to conditions: 6 h and 24 h, vs DMSO.
For another data set, the system named is G. mellonella larvae. The data set can be described thus: Toxicity of compound to Galleria mellonella larvae. The class given is in vivo. Conditions: high concentration (30 µM). The procedure: Galleria mellonella was obtained from R.J. Mous Livebait (The Netherlands). The larvae were selected by weight (0.2–0.3 grams) and by the absence of dark spots on the cuticle. The larvae were maintained at room temperature, and the day before the experiment, they were transferred to the temperature at which the experiment was going to be performed (30°C). The number of dead caterpillars was scored every day. […] G. mellonella were infected with either C. glabrata 2001HT or FL-256; C. glabrata cells were grown in liquid media (Oxoid) overnight at 30°C with moderate shaking (150 rpm). Groups of 20 larvae per strain were infected in each experiment. The pro-leg area was cleaned with 70% ethanol using a swab. The larvae were inoculated with 10 µL of C. glabrata suspension at 2.5 × 10^6 cells/mL in PBS containing 50 µg/mL of ampicillin by injection, using a Hamilton syringe with 26-gauge needle in the last left pro-leg.

Take `c1ccc(-c2cccc(-c3ccccn3)n2)nc1` [2,2′:6′,2′′-terpyridine]: in data set [1] (2-10 µM metal, 10 µM compound), the “binding of Fe^2+” value is recorded as “preferentially binds Fe^2+ in a concentration-dependent manner” and the “binding of Fe^3+” value is reported as “much lesser extent than Fe^2+”. In data set [1] (even at high concentrations), the “binding of Cu^2+” value is listed as “hardly bind” and the “binding of Zn^2+” value is given as “hardly bind”. Moreover, the “reduction of XTT (mitochondrial activity)” value in data set [2] is recorded as “significantly inhibited the reduction of XTT”. Besides, in data set [3], the “MitoTracker Red CMXRos fluorescence” value was “lower fluorescence intensities”. Besides, the “toxicity to the larvae” value with G. mellonella larvae was “well tolerated”.
